Data on 2 compounds can be found in patent publication US8367116B2, “Buoyant polymer particles for delivery of therapeutic agents to the central nervous system” (Seacoast Neuroscience, Inc., priority 2002, dated 2013).

For series [1] the following is noted: cited from earlier work.
Series [2] concerns rat middle cerebral artery occlusion (MCAo) stroke model. In words: Rat MCAo stroke model, drugs delivered into the ventricle (CSF) by osmotic pump (FIG. 4, FIG. 5). Type of series: in vivo, Sprague-Dawley rat. To be noted: given within the CSF. As for the experimental part: The parietal branch of the middle cerebral artery of the Sprague-Dawley rat is permanently occluded with a 10-0 nylon suture. The common carotid arteries are occluded temporarily for one hour. All drugs and vehicle are given beginning two hours post ischemia. Rats are sacrificed 24-hours later and the size of the infarct measured as a percent infarction of the total volume of the brain (mm^3) using imaging analysis. […], drugs are administered into the ventricle using an Alza osmotic pump (#20010) at a flow rate of 8 ul/hr over 24 hours.
Animals were treated with vehicle (n=23), Antioxidant (n=8), Prodrug (n=7) or an NMDA antagonist (n=7).

Series [3] concerns rats with unilateral cortical infarcts (stroke). Conditions: cited from earlier work.
In series [4] the test system is corticospinal tract axons. In words: Severed corticospinal tract model, inosine infused into the motor cortex, axon tracing. The format is in vivo, rats. To be noted: after 14 days of treatment. The source says:
In one model, one side of the corticospinal tract in rats is severed as it courses through the brainstem. Inosine is then infused directly into the motor cortex of the brain, the site of origin for those axons descending into the non-injured side of the corticospinal tract. After 14 days of treatment, newly grown axon branches are traced by injecting a dye into the treated nerve cells in the cortex. Animals are then sacrificed and the spinal cord examined for histology evidence of new axon growth. […] These new axonal branches then continued to descend down the injured side of the corticospinal tract, effectively replacing severed axons with new ones. […] The number of collateral (new) axons ranged up to 2,500 per treated animal, compared to 28-170 axons seen in control animals.

Setting [5] is: adult rats with unilateral cortical infarcts.

On to `C[N+](C)(C)CCOP(=O)(O)OP(=O)([O-])OC[C@H]1O[C@@H](n2ccc(N)nc2=O)[C@H](O)[C@@H]1O` [Citicholine, Cytidine-5′-diphosphocholine], for which the “citicholine dose taken up into brain tissue” value in series [1] (administered i.v.) is “about 2%”. The “citicholine dose penetrating into brain tissue” value in series [1] (administered orally) is “about 0.5%”. Further, the “initial dose found in the brain” value in series [1] (given through the blood stream) is “less than 1%”. Also, in series [2], the “dose response on infarct” value was “dose response effect”.

As to `OC[C@H]1O[C@@H](n2cnc3c(O)ncnc32)[C@H](O)[C@@H]1O` [Inosine], the “GAP-43 stained newly growing axons on the denervated side” value in series [3] (FIG. 7 B, E, after stroke) is “many”. Also, the “axons crossing from undamaged side of brain to denervated side of spinal cord” value in series [3] (FIG. 7 D, after stroke) is recorded as “causes many axons (red) to cross over”. In series [3] (setting [5]), the “new projections to denervated areas of midbrain and spinal cord” value is on record as “stimulated neurons on the undamaged side of the brain to extend new projections”; the “performance on behavioral measures” value is “improved performance”. Also, the “recovery of limb function” value in series [3] (intravenous administration, same animal model) was “little or no significant recovery”. Also, the “collateral sprouting of axons from uninjured to injured side of corticospinal tract” value in series [4] (almost all treated animals) was “extensive collateral sprouting of axons”. For the same compound, the “number of collateral (new) axons per treated animal” value in series [4] (control animals 28-170 axons) was “up to 2,500”.
